# Earlier results, collected in patent US20060073539A1 (priority 2001, published 2006).
# Tested on: human hepatocyte and neuroblastoma cells
# Details: cited from earlier work
row,Structure (SMILES),effect on cell metabolism
1,CCOP(=O)(OCC)Oc1ccc([N+](=O)[O-])cc1 [paraoxon],opposite effects
2,CCOP(=S)(OCC)Oc1ccc([N+](=O)[O-])cc1 [parathion],opposite effects
